Assays:
Recombinant IKKβ = target: T1, Recombinant IKKβ (Homo sapiens, UniProt O14920); test: DELFIA IKKβ kinase assay (apparent Ki, Cheng-Prusoff); format: biochemical
T1 construct: purchased Millipore, Dundee, UK
T1 sequence (O14920 1-756): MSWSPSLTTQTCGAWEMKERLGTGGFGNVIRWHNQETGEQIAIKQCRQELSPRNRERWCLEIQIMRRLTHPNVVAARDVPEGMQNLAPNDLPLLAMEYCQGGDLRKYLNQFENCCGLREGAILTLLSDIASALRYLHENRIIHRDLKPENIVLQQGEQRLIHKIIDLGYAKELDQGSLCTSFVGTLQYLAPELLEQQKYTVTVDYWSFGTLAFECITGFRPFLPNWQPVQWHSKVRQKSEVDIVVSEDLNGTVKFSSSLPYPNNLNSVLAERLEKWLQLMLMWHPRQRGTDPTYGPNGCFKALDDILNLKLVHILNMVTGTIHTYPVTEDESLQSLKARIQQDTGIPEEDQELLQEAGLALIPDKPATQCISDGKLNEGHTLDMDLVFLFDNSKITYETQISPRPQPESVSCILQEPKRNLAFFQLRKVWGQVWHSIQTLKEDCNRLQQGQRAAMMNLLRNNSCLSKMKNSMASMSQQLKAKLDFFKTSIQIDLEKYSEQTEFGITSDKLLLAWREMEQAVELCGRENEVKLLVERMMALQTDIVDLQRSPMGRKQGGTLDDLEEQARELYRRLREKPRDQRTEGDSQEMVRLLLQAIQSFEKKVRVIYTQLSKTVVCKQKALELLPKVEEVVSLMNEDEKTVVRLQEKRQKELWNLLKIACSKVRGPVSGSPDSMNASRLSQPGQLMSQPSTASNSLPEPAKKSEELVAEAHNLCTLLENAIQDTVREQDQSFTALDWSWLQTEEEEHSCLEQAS
Summary of the method: (§1)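 DELFIA time-resolved fluorescence (ex 340/em 615 nm) quantified phosphorylation of a biotinylated IκB-α Ser32 peptide (0.375 μM) by 37 nM recombinant IKKα or IKKβ. Reactions used 40 μM ATP, Tris pH 7.5 buffer with MgCl2, DTT and BSA, 60 min at 30° C. Cheng-Prusoff equation gave apparent Ki.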

Recombinant IKKα = target: T2, Recombinant IKKα (Homo sapiens, UniProt O15111); test: DELFIA IKKα kinase assay (apparent Ki, Cheng-Prusoff); format: biochemical
T2 construct: purchased Millipore, Dundee, UK
T2 sequence (O15111 1-745): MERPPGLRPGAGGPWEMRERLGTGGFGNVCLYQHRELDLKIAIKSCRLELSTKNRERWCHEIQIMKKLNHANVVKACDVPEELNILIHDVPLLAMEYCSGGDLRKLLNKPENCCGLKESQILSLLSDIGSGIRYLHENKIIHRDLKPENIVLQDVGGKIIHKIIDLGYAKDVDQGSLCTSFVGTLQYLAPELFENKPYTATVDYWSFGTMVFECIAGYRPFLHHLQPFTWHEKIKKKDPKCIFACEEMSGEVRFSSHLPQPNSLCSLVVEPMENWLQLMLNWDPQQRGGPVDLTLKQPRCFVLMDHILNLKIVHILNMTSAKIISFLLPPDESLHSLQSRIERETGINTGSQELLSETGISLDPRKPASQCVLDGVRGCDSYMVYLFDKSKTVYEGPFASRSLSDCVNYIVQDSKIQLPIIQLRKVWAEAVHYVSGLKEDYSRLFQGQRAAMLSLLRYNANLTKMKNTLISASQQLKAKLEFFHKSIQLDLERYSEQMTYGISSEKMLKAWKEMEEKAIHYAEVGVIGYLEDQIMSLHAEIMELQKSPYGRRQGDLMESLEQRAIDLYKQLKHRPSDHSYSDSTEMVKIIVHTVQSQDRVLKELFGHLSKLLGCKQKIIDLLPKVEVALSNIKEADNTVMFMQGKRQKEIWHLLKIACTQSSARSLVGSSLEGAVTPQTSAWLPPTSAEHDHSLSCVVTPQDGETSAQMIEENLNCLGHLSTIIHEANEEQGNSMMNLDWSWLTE
Summary of the method: as §1

[1] = DELFIA assay (first line of an example)
[2] = non-italicised figure: DELFIA assay

Row | Ki (Recombinant IKKβ; [1]) [µM] | Ki (Recombinant IKKα; [1]) [µM] | Ki (Recombinant IKKβ; [2]) [µM] | Ki (Recombinant IKKα; [2]) [µM] | Compound
1 | 0.068 | 0.036 | – | – | Cn1cc(Nc2cc(-c3cc(C#CC(C)(C)C)c4[nH]nc(N)c4c3)ccn2)cn1 [Example 303, 7-(3,3-dimethylbut-1-yn-1-yl)-5-(2-((1-methyl-1H-pyrazol-4-yl)amino)pyridin-4-yl)-1H-indazol-3-amine]
2 | > 0.37 | 0.01 | – | – | COC(=O)c1cc2c(-c3cc(C#CC(C)(C)C)c4[nH]nc(N)c4c3)ccnc2[nH]1 [Example 299, Methyl 4-(3-amino-7-(3,3-dimethylbut-1-yn-1-yl)-1H-indazol-5-yl)-1H-pyrrolo[2,3-b]pyridine-2-carboxylate]
3 | – | – | 0.258 | 0.039 | Nc1n[nH]c2c(Br)cc(-c3ncnc4[nH]ccc34)cc12 [Example 11, 7-Bromo-5-(7H-pyrrolo[2,3-d]pyrimidin-4-yl)-1H-indazol-3-amine]
4 | – | – | 1.9 | 0.1 | CC(C)c1ccccc1NC(=O)Nc1cc(-c2ccc3[nH]nc(N)c3c2)ccn1 [Example 68, 1-(4-(3-Amino-1H-indazol-5-yl)pyridin-2-yl)-3-(2-isopropylphenyl)urea]
5 | 1.26 | 0.01 | – | – | CCOC(=O)c1cc2c(-c3ccc4[nH]nc(N)c4c3)ccnc2[nH]1 [Example 232, Ethyl 4-(3-amino-1H-indazol-5-yl)-1H-pyrrolo[2,3-b]pyridine-2-carboxylate]
6 | – | – | 0.78 | 0.007 | CCC(=O)Nc1cc(-c2cc(C#CC(C)(C)C)c3[nH]nc(N)c3c2)ccn1 [Example 165, N-(4-(3-Amino-7-(3,3-dimethylbut-1-yn-1-yl)-1H-indazol-5-yl)pyridin-2-yl)propionamide]
7 | 0.087 | 0.014 | – | – | COC(=O)Nc1cc(-c2cc(-c3ccc(NC(C)=O)cc3)c3[nH]nc(N)c3c2)ccn1 [Example 326, Methyl (4-(7-(4-acetamidophenyl)-3-amino-1H-indazol-5-yl)pyridin-2-yl)carbamate]
8 | 0.5 | 0.024 | – | – | Nc1n[nH]c2c(C#CC3CCOCC3)cc(-c3ccnc(NC4COC4)c3)cc12 [Example 288, 5-(2-(Oxetan-3-ylamino)pyridin-4-yl)-7-((tetrahydro-2H-pyran-4-yl)ethynyl)-1H-indazol-3-amine]
9 | 0.046 | 0.008 | – | – | CN(C)CCCNC(=O)c1cc2c(-c3ccc4[nH]nc(N)c4c3)ccnc2[nH]1 [Example 247, 4-(3-Amino-1H-indazol-5-yl)-N-(3-(dimethylamino)propyl)-1H-pyrrolo[2,3-b]pyridine-2-carboxamide]
10 | 0.28 | 0.01 | – | – | CC(C)(C)C#Cc1cc(-c2ccnc(Nc3cn[nH]c3)c2)cc2c(N)n[nH]c12 [Example 311, 5-(2-((1H-Pyrazol-4-yl)amino)pyridin-4-yl)-7-(3,3-dimethylbut-1-yn-1-yl)-1H-indazol-3-amine]
11 | – | – | 0.194 | 0.038 | Nc1cc(-c2cc(C(F)(F)F)c3[nH]nc(N)c3c2)ccn1 [Example 3, 5-(2-Aminopyridin-4-yl)-7-(trifluoromethyl)-1H-indazol-3-amine]
12 | – | – | 0.39 | 0.028 | CC(C)(O)CCC#Cc1c(-c2ccc3[nH]nc(N)c3c2)ccnc1N [Example 86, 6-(2-Amino-4-(3-amino-1H-indazol-5-yl)pyridine-3-yl)-2-methylhex-5-yn-2-ol]
13 | – | – | 0.826 | 0.005 | COC(=O)Nc1cc(-c2cc(C#CC(C)(C)O)c3[nH]nc(N)c3c2)ccn1 [Example 180, Methyl (4-(3-amino-7-(3-hydroxy-3-methylbut-1-yn-1-yl)-1H-indazol-5-yl)pyridin-2-yl)carbamate]
14 | 0.148 | 0.062 | – | – | Cn1ccc(Nc2cc(-c3cc(C#CC(C)(C)C)c4[nH]nc(N)c4c3)ccn2)n1 [Example 302, 7-(3,3-dimethylbut-1-yn-1-yl)-5-(2-((1-methyl-1H-pyrazol-3-yl)amino)pyridin-4-yl)-1H-indazol-3-amine]
15 | – | – | > 10 | 0.17 | C[C@H]1CC[C@H](Nc2cc(-c3ccc4[nH]nc(N)c4c3)ccn2)CC1 [Example 19, 5-{2-[(Trans-4-methylcyclohexyl)amino]pyridin-4-yl}-1H-indazol-3-amine]

Source: patent publication US20250304576A1 (Cancer Research Technology Limited, priority 2022, published 2025)
